The values that follow come from US7314888B1, “Compounds and medicinal use thereof” (Toyama Chemical Co., Ltd., priority 1998, dated 2008).

Assay [1] concerns the target T1, AP-1 complex (Fos/Jun peptide) (Homo sapiens, UniProt P01100+P05412).
T1 construct: made in house; host or cells: chemical peptide synthesis (no expression host)
Description: Activities on AP-1 binding reaction to recognition sequence (ELISA) using Fos/Jun peptide. As to conditions: read-out: Inhibition rate %. The protocol:
(§1) Activities on AP-1 Binding Reaction to Recognition Sequence (ELISA)
On the other hand, Jun peptide and N-terminal biotinylated tetraglycine Fos peptide containing a DNA-binding site [Nature, Vol. 373, Pages 257-261, 1995] were synthesized and separately dissolved in tris buffer (20 mM tris-hydrochloride (pH 7.5), 50 mM potassium chloride, 1 mM ethylenediaminetetraacetic acid, 10 mM magnesium chloride, 1 mM dithiothreitol, 0.5M guanidine hydrochloride, 30% glycerol). Equimolar quantities of both the solutions were mixed together, and the mixture was used as an AP-1 complex (Fos/Jun peptide). The AP-1 complex was added to avidin-coating 96-well ELISA plate (10 pmol/well), washed, and then blocked with bovine serum albumin. The product was used for binding assay using AP-1 complex.
(§2) On the basis of the above-mentioned two coated AP-1, a digoxigenin-labeled double stranded oligonucleotide (22-mer) containing an AP-1 binding sequence ([…]) which has been synthesized elsewhere was reacted in the presence and absence of a sample at room temperature for 30-60 minutes in a binding reaction solution [Hepes buffer or 25 mM tris-hydrochloric acid (pH 7.9), 0.5 mM ethylenediaminetetraacetic acid, 0.05% Nonidet P-40, 10% glycerol]. After of the reaction, unbound labeled oligonucleotide washed out with Hepes buffer solution containing 0.05% of Tween-20. Then, an anti-digoxigenin antibody labeled with peroxidase was added, and reacted with the labeled oligonucleotide bound to AP-1. After washing out the excessive antibody with Hepes buffer containing 0.05% of Tween-20, the residue was reacted for a predetermined period of time in a 100 mM citrate buffer (pH 5.0) containing hydrogen peroxide by using o-phenylenediamine as a substrate. After adding-sulfuric acid solution to each well, absorbance (492 nm) was measured. Taking the absorbance in the absence of sample as 100%, inhibition rate of sample was calculated from the absorbance in the presence of sample.
For orientation: An ELISA detects its analyte on a solid surface through an enzyme-linked reagent.

The subject of assay [2] is transcription factor AP-1 (nuclear extract protein prepared from HeLa cells). Description: Activities on AP-1 binding reaction to recognition sequence (ELISA) using nuclear extract protein. As to conditions: 100 μM; ELISA using nucleus-extracted protein. The protocol:
as §1
Nuclear extract protein containing transcription factor AP-1 prepared from HeLa cells was coated on 96-well ELISA plate (100 ng/well) in Hepes buffer (20 mM Hepes-potassium hydroxide (pH 7.9), 0,5 mM ethylenediamine-tetraacetic acid, 50 mM potassium chloride, 10% glycerol). After washing, a blocking treatment was carried out with bovine serum albumin, and then used for a binding assay using nuclear extract protein.
as §2

Broadly, the inhibition is the change of the read-out against control, counted positive when it falls.

Bridge positions count the residues as written; N and C are the ends. Peptide text beside a SMILES is read from it.

T1 sequence (P01100 137-200 limits assumed): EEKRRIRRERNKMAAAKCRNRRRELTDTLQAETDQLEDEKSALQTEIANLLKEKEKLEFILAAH
T1 sequence (P05412 252-315 limits assumed): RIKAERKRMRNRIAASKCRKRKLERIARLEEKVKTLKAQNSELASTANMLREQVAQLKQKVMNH

`CC(C)COc1ccc(C(=O)c2ccc(OCC(C)C)c(CC(=O)O)c2)c(OCC(C)C)c1` [Example 7, 2-[5-(2,4-diisobutoxybenzoyl)-2-isobutoxyphenyl]acetic acid]: in assay [1], the inhibition at 200 µM came to 14% and the inhibition at 500 µM stood at 46%. The compound `CC(=O)NC1CSSCC(C(N)=O)NC(=O)C(CC(=O)O)NC(=O)CNC(=O)C(CC(C)C)NC(=O)C(C)NC(=O)C(CC(C)C)NC(=O)C(CC(C)C)NC(=O)C(CC(N)=O)NC(=O)CNC1=O` (stereo not drawn) [3 (10)] (Ac-CGNLLALGDC-NH2; disulfide 1-10; configuration not given here) displayed an Inhibition rate in assay [2] of 76%. As to `CC(C)CCOc1ccc(C(=O)c2cc(C(=O)CC(C)C)cn2CCC(C)C)cc1CCC(=O)O` [Example 88, 3-[5-{[1-isopentyl-4-(3-methylbutanoyl)-1H-pyrrol-2-yl]carbonyl}-2-(isopentyloxy)phenyl]propanoic acid], in assay [1], the inhibition at 200 µM came out at 29% and the inhibition at 500 µM was determined as 72%. As to `CC(=O)NC1CSSCC(C(N)=O)NC(=O)CNC(=O)C(CC(N)=O)NC(=O)C(C)NC(=O)C(CC(C)C)NC(=O)C(CC(=O)O)NC(=O)C(CC(C)C)NC(=O)C(CCC(N)=O)NC(=O)CNC1=O` (stereo not drawn) [3 (4)] (Ac-CGQLDLANGC-NH2; disulfide 1-10; configuration not given here), the Inhibition rate in assay [2] came to 64%. Consider `CC(C)COc1ccc(C(NS(C)(=O)=O)c2ccc(OCC(C)C)c(CCC(=O)O)c2)c(OCC(C)C)c1` (stereo not drawn) [Example 73, 3-(5-{(2,4-diisobutoxyphenyl)[(methylsulfonyl)amino]methyl}-2-isobutoxyphenyl)propanoic acid], for which, in assay [1], the inhibition at 200 µM was 18% and the inhibition at 500 µM turned out to be 74%. With `CC(C)CC=C1CCC2(CC1)SC[C@H](C(=O)O)N2C(=O)CCC(C)C` (stereo partly drawn) [Example 4, (3S)-8-(3-methylbutylidene)-4-(4-methylpentanoyl)-1-thia-4-azaspiro[4.5]-decane-3-carboxylic acid], in assay [1], the inhibition at 200 µM stood at 8% and the inhibition at 500 µM came to 15%.

As to `CC(C)COc1ccc(C(=O)c2ccc(OCC(C)C)c(C(=O)NCC(=O)O)c2)c(OCC(C)C)c1` [Example 57, 2-{[5-(2,4-diisobutoxybenzoyl)-2-isobutoxybenzoyl]amino}-acetic acid], in assay [1], the inhibition at 200 µM came to 13% and the inhibition at 500 µM is 62%. In assay [2], `CC(=O)NC1CSSCC(C(N)=O)NC(=O)CNC(=O)C(CC(=O)O)NC(=O)C(C)NC(=O)C(CC(C)C)NC(=O)C(CC(=O)O)NC(=O)C(CC(C)C)NC(=O)C(CC(N)=O)NC(=O)CNC1=O` (stereo not drawn) [3 (6)] (Ac-CGNLDLADGC-NH2; disulfide 1-10; configuration not given here) had an Inhibition rate of 42%. For the compound `CC(C)COc1ccc(C(O)c2ccc(OCC(C)C)c(CCC(=O)O)c2)c(OCC(C)C)c1` (stereo not drawn) [Example 15, 3-{5-[(2,4-diisobutoxyphenyl)(hydroxy)methyl]-2-isobutoxyphenyl}propionic acid], in assay [1], the inhibition at 200 µM was 19% and the inhibition at 500 µM amounted to 64%.

As for `CC(C)COc1ccc(C(=O)c2ccc3c(c2)cc(C(=O)O)n3CC(C)C)c(OCC(C)C)c1` [Example 82, 5-(2,4-diisobutoxybenzoyl)-1-isobutyl-1H-indole-2-carboxylic acid], in assay [1], the inhibition at 200 µM stood at 28% and the inhibition at 500 µM came to 97%.

Turning to `CC(C)COc1ccc(C(=O)c2ccc(OCC(C)C)c(C(=O)O)c2)c(OCC(C)C)c1` [Example 8, 5-(2,4-diisobutoxybenzoyl)-2-isobutoxybenzoic acid], in assay [1], the inhibition at 200 µM was 9% and the inhibition at 500 µM worked out at 20%.

In the case of `CC(C)COc1ccc(C(=O)c2ccc(OCC(C)C)c(CCC(=O)O)c2)c(O)c1` [Example 38, 3-[5-(2-hydroxy-4-isobutoxybenzoyl)-2-isobutoxyphenyl]-propanoic acid], in assay [1], the inhibition at 200 µM stood at 18% and the inhibition at 500 µM came to 91%. Regarding `CC(C)COc1ccc(C(=O)c2ccc(OCC(C)C)c(CCC(=O)NS(C)(=O)=O)c2)c(OCC(C)C)c1` [Example 58, N-{3-[5-(2,4-diisobutoxybenzoyl)-2-isobutoxyphenyl]propanoyl}methanesulfonamide], in assay [1], the inhibition at 200 µM stood at 22% and the inhibition at 500 µM stood at 88%.

`CC(C)COc1ccc(C(=O)c2ccc(OCC(C)C)c(OCC(C)C)c2)cc1CCC(=O)O` [Example 47, 3-[5-(3,4-diisobutoxybenzoyl)-2-isobutoxyphenyl]-propanoic acid]: in assay [1], the inhibition at 200 µM came to 35% and the inhibition at 500 µM worked out at 92%. As to `CC(=O)NC1CSSCC(C(N)=O)NC(=O)CNC(=O)CNC(=O)C(C)NC(=O)C(CC(C)C)NC(=O)C(CC(=O)O)NC(=O)C(CC(C)C)NC(=O)C(CCC(N)=O)NC(=O)CNC1=O` (stereo not drawn) [3(3), Ac-Cys^1-Gly-Gln-Leu-Asp-Leu-Ala-Gly-Gly-Cys^10-NH2 (Cys^1-Cys^10)] (Ac-CGQLDLAGGC-NH2; disulfide 1-10; configuration not given here), the Inhibition rate in assay [2] is reported as 43%. “Ac-Asn-Cys^2-Gly-Asn-Leu-Leu-Ala-Leu-Gly-Ser-Cys^11-NH2 (Cys^2-Cys^11) (GNLLALGSC; not fully specified; Ac-Asn-Cys N-term, C-amide, disulfide; printed: Gly-Asn-Leu-Leu-Ala-Leu-Gly-Ser-Cys) [3(7)]”: in assay [2], the Inhibition rate was found to be 74%.

The compound “Ac-Cys^1-Gly-Gln-Leu-Asp-Leu-Ala-Asp-Gly-Cys^10-NH2 (Cys^1-Cys^10) (GQLDLADGC; not fully specified; N-acetyl Cys, C-amide, Cys1-Cys10 disulfide; printed: Gly-Gln-Leu-Asp-Leu-Ala-Asp-Gly-Cys) [Example 2]” yielded an Inhibition rate in assay [2] of 81%. On the same count and under the same terms, the same measure for `CC(=O)NC1CSSCC(C(N)=O)NC(=O)CNC(=O)C(CC(C)C)NC(=O)C(C)NC(=O)C(CC(C)C)NC(=O)C(CO)NC(=O)C(CC(C)C)NC(=O)C(CCC(N)=O)NC(=O)CNC1=O` (stereo not drawn) [3 (2)] (Ac-CGQLSLALGC-NH2; disulfide 1-10; configuration not given here): 94%. Consider `CC(C)CCOc1ccc(C(=O)c2ccc3c(c2)n(CCC(C)C)c(=O)n3CCC(C)C)cc1CC(=O)O` [Example 90, 2-[5-[(1,3-diisopentyl-2-oxo-2,3-dihydro-1H-benzimidazol-5-yl)carbonyl]-2-(isopentyloxy)phenyl]-acetic acid], for which, in assay [1], the inhibition at 200 µM worked out at 26% and the inhibition at 500 µM was 96%.

In the case of `CC(C)COc1ccc(C(O)c2ccc(OCC(C)C)c(C=CC(=O)O)c2)c(OCC(C)C)c1` (stereo not drawn) [Example 14, 3-[5-[(2,4-diisobutoxyphenyl)(hydroxy)methyl]-2-isobutoxyphenyl]-2-propenoic acid], in assay [1], the inhibition at 200 µM is 21% and the inhibition at 500 µM worked out at 90%. With `CC(C)COc1ccc(C(=O)c2ccc(OCC(C)C)c(OCC(=O)O)c2)c(OCC(C)C)c1` [Example 53, 2-[5-(2,4-diisobutoxybenzoyl)-2-isobutoxyphenoxy]acetic acid], in assay [1], the inhibition at 200 µM is 30% and the inhibition at 500 µM came to 79%. Taken in the same sequence, the figures for `CC(C)COc1ccc(C(O)c2ccc(OCC(C)C)c(CC(=O)O)c2)c(OCC(C)C)c1` (stereo not drawn) [Example 9, 2-{5-[(2,4-diisobutoxyphenyl)(hydroxy)methyl]-2-isobutoxyphenyl}-acetic acid] were 23% and 37%. `CC(C)COc1ccc(Cc2ccc(OCC(C)C)c(CC(=O)O)c2)c(OCC(C)C)c1` [Example 16, 2-[5-(2,4-diisobutoxybenzyl)-2-isobutoxyphenyl]acetic acid]: in assay [1], the inhibition at 200 µM worked out at 21% and the inhibition at 500 µM was 65%. Take `CC(C)COc1ccc(OCC(C)C)c(C(=O)c2ccc(OCC(C)C)c(CCC(=O)O)c2)c1` [Example 43, 3-[5-(2,5-diisobutoxybenzoyl)-2-isobutoxyphenyl]-propanoic acid]: in assay [1], the inhibition at 200 µM is 28% and the inhibition at 500 µM was 72%.

Consider `CC(C)COc1cc(OCC(C)C)cc(C(=O)c2ccc(OCC(C)C)c(CCC(=O)O)c2)c1` [Example 41, 3-[5-(3,5-diisobutoxybenzoyl)-2-isobutoxyphenyl]propanoic acid], for which, in assay [1], the inhibition at 200 µM was 27% and the inhibition at 500 µM was 78%. In the case of `CC(C)COc1ccc(C(=O)c2ccc(OCC(C)C)c(/C=C/C(=O)O)c2)c(OCC(C)C)c1` [Example 13, 3-[5-(2,4-diisobutoxybenzoyl)-2-isobutoxyphenyl]-2-propenoic acid], in assay [1], the inhibition at 200 µM worked out at 43% and the inhibition at 500 µM is 96%.
